Data taken from ChEMBL document CHEMBL1153384, “Synthesis, antimalarial activity, and preclinical pharmacology of a novel series of 4'-fluoro and 4'-chloro analogues of amodiaquine. Identification of a suitable "back-up" compound for N-tert-butyl isoquine” (J Med Chem, 2009).

Experiments:
Rattus norvegicus [1] = test: Drug elimination in Wistar rat assessed as [3H]labeled drug level at 54 umol/kg, iv after 24 hrs; format: ADME, organism-based; conditions: in vivo
Plasmodium falciparum = test: Antimalarial activity against chloroquine-resistant Plasmodium falciparum TM6; format: functional, organism-based
[2] = Drug metabolism in cannulated Wistar rat assessed as biliary excretion of [3H]labeled drug level at 54 umol/kg, iv after 5 hrs; format: ADME, organism-based, Bile; conditions: in vivo
Plasmodium yoelii = test: Antimalarial activity as minimal concentration for parasite elimination at day 23 against Plasmodium yoelii 17X intravenously inoculated CD1 mice (Mus musculus) dosed 1 hrs post infection then daily for 4 days
[3] = Toxicity against Wistar rat hepatocytes after 6 hrs by trypan blue exclusion method; format: cell-based, Hepatocyte; conditions: read-out: TC50
Heme [4] = test: Binding affinity to heme assessed as binding constant for stepwise binding of 2 molecules of heme to 1 equivalent of drug in presence of 40% DMSO by UV-visible spectroscopy
[5] = Drug metabolism in cannulated Wistar rat assessed as urinary excretion of [3H]labeled drug level at 54 umol/kg, iv after 5 hrs; format: ADME, organism-based, Urine; conditions: in vivo
[6] = Clearance in iv dosed rat; format: ADME, organism-based; conditions: in vivo
Heme [7] = test: Binding affinity to heme assessed as binding constant for stepwise binding of 2 equivalent of drug to 1 molecule of heme in presence of 40% DMSO by UV-visible spectroscopy
Cytochrome P450 2C9 = Cytochrome P450 2C9 (Homo sapiens, UniProt P11712); test: Inhibition of human CYP2C9; format: ADME
Cytochrome P450 2C9, sequence (P11712 whole entry): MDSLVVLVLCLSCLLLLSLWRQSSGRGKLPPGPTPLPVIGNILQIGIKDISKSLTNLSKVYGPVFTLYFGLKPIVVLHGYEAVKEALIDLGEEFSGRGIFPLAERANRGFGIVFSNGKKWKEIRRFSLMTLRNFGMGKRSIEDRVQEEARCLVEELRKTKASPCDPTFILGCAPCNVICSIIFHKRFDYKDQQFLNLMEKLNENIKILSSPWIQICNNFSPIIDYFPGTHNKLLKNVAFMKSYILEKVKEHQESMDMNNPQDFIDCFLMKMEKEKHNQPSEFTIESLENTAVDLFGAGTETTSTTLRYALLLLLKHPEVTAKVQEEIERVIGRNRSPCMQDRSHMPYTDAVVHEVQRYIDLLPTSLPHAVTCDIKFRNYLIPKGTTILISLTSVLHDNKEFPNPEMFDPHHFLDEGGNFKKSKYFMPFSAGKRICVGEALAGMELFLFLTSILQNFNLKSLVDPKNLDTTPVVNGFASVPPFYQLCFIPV

Liver = test: Biodistribution in cannulated Wistar rat liver assessed as [3H]labeled drug level at 54 umol/kg, iv after 5 hrs; format: ADME, organism-based; conditions: in vivo
Rattus norvegicus [8] = test: Metabolic stability in Wistar rat assessed as 2-[5-(7-Chloro-quinolin-4-ylamino)-2-fluoro-benzylamino]-2-methyl-propionic acids level at 54 umol/kg, iv administered as [3H]labeled drug after 5 hrs; format: ADME, organism-based; conditions: in vivo
[9] = Toxicity in po dosed mouse assessed as drug level causing no observed adverse effects administered as single dose; format: organism-based; conditions: in vivo, read-out: Activity
Mus musculus = test: Toxicity in po dosed mouse assessed as induction of hematological toxicity at drug dose above no observed adverse effects level; format: organism-based; conditions: in vivo
[10] = Toxicity in po dosed mouse assessed as drug level causing no observed adverse effects administered as once daily for 4 days; format: organism-based; conditions: in vivo, read-out: Activity
[11] = Partition coefficient, log P of the compound; format: physicochemical; conditions: octanol/water

CC(C)(C)NCc1cc(Nc2ccnc3cc(Cl)ccc23)ccc1F
Activity (Rattus norvegicus [1]): 51.36%
IC50 (Plasmodium falciparum): 0.0219 µM
Activity [2]: 9.16%
Activity (Plasmodium yoelii): >40 mg/kg
CC50 at 6 h [3]: 385 µM
log Ks (Heme [4]): 5.68
Activity [5]: 8.06%
clearance [6]: 35 mL/min/kg
log Ks (Heme [7]): 5.45
IC50 (Cytochrome P450 2C9): 52 µM
Drug uptake (Liver): 17.49 %ID
Activity (Rattus norvegicus [8]): 14.22%
NOAEL [9]: 300 mg/kg
Activity (Mus musculus): Toxic
NOAEL at 96 h [10]: 100 mg/kg
logP [11]: 5.15
